{"source": "patent US10034738B2", "about": "“Cardiac tissue constructs and methods of fabrication thereof” (THE GOVERNING COUNCIL OF THE UNIVERSITY OF TORONTO, priority 2012, dated 2018)", "key": {"[1]": {"tested_on": "cardiac tissue constructs", "experiment": "Preliminary growth factor screen, excitation threshold (ET) of cardiac tissue constructs", "type": "cell-based", "conditions": "compared to the control condition", "experimental": "Tissue function was established by measuring excitation threshold (ET), the minimum voltage required to pace the tissue simultaneously, and maximum capture rate (MCR), the maximum stimulation rate at which the construct can be induced to beat simultaneously, at 7 days after cell seeding. Tissue constructs or cardiomyocyte aggregates were individually placed between a pair of carbon electrodes in stimulation chambers (autoclaved before use). ET (V/cm) was measured by stimulating the tissue with square pulses of 2 ms pulse width at a frequency of 1 or 2 Hz and gradually increasing the output voltage of the stimulator until >80% of the tissue was beating synchronously with the stimulator output. MCR was measured by setting the output voltage at 12 V, and increasing frequency until >80% of the tissue was no longer synchronously beating with the driving signal. […]\nA preliminary screen was also performed in order to determine the maturation effect of growth factors. […] The challenge with higher level functional readouts with in vitro models is that further analyses need to be done to determine the mode of action. In order to determine the mechanism of IGF1 and HRG, other functional parameters as well as molecular readouts over a time course will be investigated."}, "cardiac microwire [2]": {"tested_on": "cardiac microwire", "experiment": "Optical mapping of intracellular calcium transients of cardiac microwire (calcium-sensitive dye)", "type": "cell-based, human", "experimental": "(§1) Using drugs of known effects, the cardiac microwire was perturbed and optically mapped their response (transmembrane AP and intracellular calcium transient) using voltage- and calcium-sensitive dyes, respectively.\n(§2) Conduction velocity was calculated at each location using activation times of 9 neighbouring sites. Conduction velocity values from all sites were used to calculate the average conduction velocity across the construct surface; minimum and maximum values were also noted. Phase contrast images of microtissue surfaces were taken prior to optical mapping, to correlate tissue architecture geometry with conduction velocity. Concentrations of drugs used applied as indicated. Stock solutions were prepared as recommended by vendors: Epinephrine at 1:1000 (Hospira), Lidocaine at 1:1000 (Hospira), and Verapamil at 1:1000 (Sandoz)."}, "cardiac microwire [3]": {"tested_on": "cardiac microwire", "experiment": "Optical mapping of transmembrane action potentials of cardiac microwire (voltage-sensitive dye)", "type": "cell-based, human", "conditions": "relative to the baseline", "experimental": "as §1\nFor optical measurements, microtissues were stained with […] of Di-4-ANEPPS (Invitrogen, Carlsbad Calif.) voltage-sensitive dye for 20 minutes, followed by 3 washouts with fresh warm Tyrode's solution (Sigma-Aldrich) adjusted to pH 7.4. The temperature was kept constant at 37° C. using a block incubator. Dye fluorescence was recorded using a microscope mapping system (Ultima, Scimedia, Tokyo Japan). The system included a CMOS camera with a 1 cm sensor (100×100 pixel) attached to a custom-built microscope using PLAN APO objective and condensing lenses (Leica Microsystems GmbH, Wetzlar Germany), giving a magnification of 1.5×. The spatial resolution was 63 μm/pixel. The fluorescence was excited using a Xenon light source (Moritek Corp. Japan) and a 530 nm green filter (Semrock, Rochester N.Y.) and the emission signal was long pass filtered using a 610 nm red filter. Tissue constructs were point stimulated at 1000-ms cycle length using a bipolar electrode made with 2 fine silver wires (AWG#32) inserted in a large stainless steel needle mounted on a micromanipulator. Spontaneous tissue beating was also recorded, in addition to responses to frequency sweep from 1 to 5 Hz. Local activation times were measured at the peak of dF/dT for each pixel. Activation maps were constructed for a selected beat.\nas §2, with “Stock solutions were prepared as recommended by vendors: Epinephrine at 1:1000 (Hospira), Lidocaine at 1:1000 (Hospira), and Verapamil at 1:1000 (Sandoz).” left out"}, "[4]": {"tested_on": "cardiac tissue constructs", "conditions": "relative to no-drug control, 15 minutes of incubation at 37 degrees Celsius, increasing concentrations", "protocol": "In the present example, microwells with ramped support structures having retaining structures provided thereon, as described above, were seeded at 0.1×10^6 cells per tissue in 2.0 mg/mL Collagen 1. Tissues remodeled over two weeks along with contractile force as measured using the microcantilevers in the system. After two weeks, tissues were introduced with drugs in 100% DMSO vehicle. Final concentrations applied to tissues were ensured to be less than 0.01% DMSO to ensure non-toxic effects. Concentrations were mixed separately in a 96 well plate and applied to the tissues. Measurements were taken after 15 minutes of incubation with the drug at 37 degrees Celsius.\nVideos of approximately 10 seconds were recorded and analyzed offline using ImageJ for each condition. […] Contractile force assays were conducted after the contractile force was plateaued to ensure no changes in contractile force due to tissue remodeling."}}, "note": "“Also recorded” adds a separate entry of the source."}
{"molecule": "IGF1: one of seven growth factors in a preliminary maturation screen", "values": [{"measurement": "excitation threshold (ET)", "setting": "[1]", "result": "reduced ET compared to the control condition"}]}
{"molecule": "CNC[C@H](O)c1ccc(O)c(O)c1", "note": "[Epinephrine]", "values": [{"measurement": "rate of calcium transients", "setting": "cardiac microwire [2]; Epinephrine 0.1 μg/mL supplemented after Verapamil 0.25 μg/mL", "result": "increased the rate of calcium transients"}, {"measurement": "AP activation rate", "setting": "cardiac microwire [3]; Epinephrine 0.1 μg/mL", "result": "increased the AP activation rate relative to the baseline"}, {"measurement": "AP activation rate", "setting": "cardiac microwire [3]; Epinephrine 0.1 μg/mL, listed as epinephrine", "result": "increased activation rate"}]}
{"molecule": "CC(C)(C)c1ccc(C(O)CCCN2CCC(C(O)(c3ccccc3)c3ccccc3)CC2)cc1", "note": "(stereo not shown) [Terfenadine]", "values": [{"measurement": "relative contractile force", "setting": "[4]", "result": "reduce the contractile force (relative to control) with increasing concentrations"}]}
{"molecule": "CCN(CC)CC(=O)Nc1c(C)cccc1C", "note": "[Lidocaine]", "values": [{"measurement": "AP activation rate", "setting": "cardiac microwire [3]; increasing concentrations of Lidocaine, 2 μg/mL and 4 μg/mL", "result": "reduced and nearly abolished activation; also recorded: decreased the activation rate"}]}
{"molecule": "COc1ccc(CCN(C)CCCC(C#N)(c2ccc(OC)c(OC)c2)C(C)C)cc1OC", "note": "(stereo not shown) [Verapamil]", "values": [{"measurement": "amplitude of calcium waves", "setting": "cardiac microwire [2]; Verapamil 0.25 μg/mL, relative to the baseline", "result": "reduced the amplitude of calcium waves"}]}
